In patent US12268724B2, “Methods and compositions for the prevention or treatment of Barth Syndrome” (Stealth BioTherapeutics Inc., priority 2013, dated 2025):
Where no end group is shown, it is not given here. [ ]: non-standard residue; d: D form.

Tests used:
[1] = test system: plasma membrane of several mammalian cell types; conditions: cited from earlier work
mu-opioid receptor = mu-opioid receptor (Homo sapiens, UniProt P35372); experiment: Mu-opioid receptor agonist activity; conditions: stated in description, no test described
mitochondria = experiment: Electron microscopy of mitochondrial ultrastructure and organization in tissue from cardiac disease subject; format: in vivo
Experimental: A tissue sample from a subject with Barth Syndrome and tissue samples from a subject with cardiac disease was prepared for electron microscopy imaging of the mitochondria using standards known in the art. […] FIG. 3.

TAZ1 = TAZ1 mRNA expression in a dog model of heart failure (real-time PCR of LV tissue); format: in vivo; conditions: dogs with microembolization-induced heart failure, 0.5 mg/kg once daily subcutaneous, three months, saline control 2.25-fold
Experimental: Twelve dogs were subject to coronary microembolization-induced heart failure (LV ejection fraction ˜30%) as described above in Example 1. Subjects were randomized into D-Arg-2′6′-Dmt-Lys-Phe-NH2-treated and control groups for a three-month trial. Subjects received subcutaneous injections of D-Arg-2′6′-Dmt-Lys-Phe-NH2 (0.5 mg/kg once daily, n=6) or saline (Untreated-HF Control, n=6). RNA was prepared from LV tissue of all subjects at the end of the treatment phase and from the LV of six normal subject controls. Levels of TAZ1 mRNA were determined by real-time PCR. Changes in mRNA levels were expressed as fold reduction using the CT Method, with normalization to a […] (GAPDH) internal control.

mu-opioid receptor, sequence (P35372 whole entry, species assumed): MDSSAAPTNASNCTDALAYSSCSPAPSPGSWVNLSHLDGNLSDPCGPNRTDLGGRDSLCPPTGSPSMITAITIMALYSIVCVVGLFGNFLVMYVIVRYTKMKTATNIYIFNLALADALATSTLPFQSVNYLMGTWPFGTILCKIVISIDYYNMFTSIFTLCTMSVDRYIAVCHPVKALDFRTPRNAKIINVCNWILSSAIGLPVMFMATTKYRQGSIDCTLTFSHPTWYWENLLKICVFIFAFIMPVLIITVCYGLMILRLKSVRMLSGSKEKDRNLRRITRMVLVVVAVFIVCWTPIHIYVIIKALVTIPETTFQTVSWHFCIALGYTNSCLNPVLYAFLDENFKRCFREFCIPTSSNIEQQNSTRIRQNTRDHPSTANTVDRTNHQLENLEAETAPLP

Question: With 2′, 6′-Dmt-D-Arg-Phe-Lys-NH2 as the substance, how does the “penetration of the plasma membrane” value [1] read?
Answer: readily penetrates the plasma membrane of several mammalian cell types in an energy-independent manner

Question: With F[dR]FK-NH2 as the substance, how does the “mu-opioid receptor agonist activity” value (mu-opioid receptor) read?
Answer: does not have mu-opioid receptor agonist activity

Question: Which results are given for D-Arg-2′6′-Dmt-Lys-Phe-NH2?
Answer: ultrastructure of the mitochondria (electron microscopy) (mitochondria; cardiac disease subject treated with an effective amount, FIG. 4A vs 4B): ameliorated the abnormal features of the ultrastructure of the mitochondria; organization of the mitochondria (electron microscopy) (mitochondria; tissue from treated vs not treated cardiac disease subject, FIGS. 5A-5B): improved organization of the mitochondria; mu-opioid receptor agonist activity (mu-opioid receptor): does not have mu-opioid receptor agonist activity; decrease in TAZ1 mRNA relative to normal subjects (fold reduction, CT Method, normalized to GAPDH) (TAZ1): 1.23 fold

Question: With Tyr-D-Arg-Phe-Lys-NH2 as the substance, how does the “mu-opioid receptor agonist activity” value (mu-opioid receptor) read?
Answer: has mu-opioid receptor agonist activity
